Assay results from US20260262643A1, “HERBICIDAL BENZOXAZINES” (FMC CORPORATION, priority 2022, published 2026).

How the values were obtained:
oat, wild [1] = assay: Test C postemergence; assay type: in vivo, Avena fatua; details: 125 g ai/ha, postemergence, 10 days; 0 to 100 scale, 0 no effect, 100 complete control
In short: (§1)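 Seeds sown in loam soil–sand blend received a directed preemergence soil spray of test chemical in non-phytotoxic solvent with surfactant; postemergence plants (2–10 cm, one- to two-leaf stage) were sprayed with the same formulation. Greenhouse-held 10 days, then visually rated for injury versus untreated controls, 0 (no effect) to 100 (complete control).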

horseweed = assay: Test C postemergence; assay type: in vivo, Erigeron canadensis; details: 10 days
In short: as §1

ducksalad = assay: Test D flooded paddy test; assay type: in vivo, Heteranthera limosa; details: 250 g ai/ha, applied to paddy water, visual rating after 13 to 14 days, scale 0 to 100 (0 no effect, 100 complete control)
In short: (§2)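 Post-flood water application at the 2-leaf stage; 3 cm flood depth kept constant; visual control rating 0–100 after 13–14 days greenhouse growth.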

ragweed [2] = assay: Test C preemergence; assay type: in vivo, Ambrosia artemisiifolia; details: preemergence, 0 to 100 scale (0 no effect, 100 complete control)
In short: as §1

pigweed, palmer [3] = assay: Test C preemergence; assay type: in vivo, Amaranthus palmeri; details: preemergence, 0 to 100 scale (0 no effect, 100 complete control)
In short: as §1

blackgrass [4] = assay: Test C preemergence; assay type: in vivo, Alopecurus myosuroides; details: 0 to 100 scale (0 no effect, 100 complete control); for Plant response rating, Blackgrass: Preemergence, 500 g ai/ha, visual rating after 10 days; for Blackgrass plant response rating: Test C, preemergence, 125 g ai/ha
In short: as §1

barnyardgrass [5] = assay: Test D flooded paddy test; assay type: in vivo, Echinochloa crus-galli; details: 250 g ai/ha, applied to paddy water, visual rating after 13 to 14 days, scale 0 to 100 (0 no effect, 100 complete control)
In short: as §2

green foxtail [6] = assay: Test C postemergence; assay type: in vivo, Setaria viridis; details: 10 days
In short: as §1

kochia [7] = assay: Test C preemergence; assay type: in vivo, Bassia scoparia; details: preemergence, 0 to 100 scale (0 no effect, 100 complete control)
In short: as §1

soybean [8] = assay: Test C preemergence; assay type: in vivo, Glycine max; details: preemergence, 0 to 100 scale (0 no effect, 100 complete control)
In short: as §1

galium = assay: Test C postemergence; assay type: in vivo, Galium aparine; details: 10 days
In short: as §1

corn [9] = assay: Test C postemergence; assay type: in vivo, Zea mays; details: 10 days
In short: as §1

ryegrass, Italian [10] = assay: Test C preemergence; assay type: in vivo, Lolium multiflorum; details: preemergence, 0 to 100 scale (0 no effect, 100 complete control)
In short: as §1

ryegrass, Italian [11] = assay: Test C postemergence; assay type: in vivo, Lolium multiflorum; details: 125 g ai/ha, postemergence, 10 days; 0 to 100 scale, 0 no effect, 100 complete control
In short: as §1

wheat [12] = assay: Test C preemergence; assay type: in vivo, Triticum aestivum; details: preemergence, 0 to 100 scale (0 no effect, 100 complete control)
In short: as §1

blackgrass [13] = assay: Test C postemergence; assay type: in vivo, Alopecurus myosuroides; details: 10 days
In short: as §1

ragweed [14] = assay: Test C postemergence; assay type: in vivo, Ambrosia artemisiifolia; details: 125 g ai/ha, postemergence, 10 days; 0 to 100 scale, 0 no effect, 100 complete control
In short: as §1

barnyardgrass [15] = assay: Test C preemergence; assay type: in vivo, Echinochloa crusgalli; details: 0 to 100 scale (0 no effect, 100 complete control); for Plant response rating, Barnyardgrass: Preemergence, 500 g ai/ha, visual rating after 10 days; for Barnyardgrass plant response rating: Test C, preemergence, 125 g ai/ha
In short: as §1

pigweed, palmer [16] = assay: Test C postemergence; assay type: in vivo, Amaranthus palmeri; details: 125 g ai/ha, postemergence, 10 days; 0 to 100 scale, 0 no effect, 100 complete control
In short: as §1

wheat [17] = assay: Test C postemergence; assay type: in vivo, Triticum aestivum; details: 125 g ai/ha, postemergence, 10 days; 0 to 100 scale, 0 no effect, 100 complete control
In short: as §1

green foxtail [18] = assay: Test C preemergence; assay type: in vivo, Setaria viridis; details: preemergence, 0 to 100 scale (0 no effect, 100 complete control)
In short: as §1

sedge, umbrella = assay: Test D flooded paddy test; assay type: in vivo, Cyperus difformis; details: 250 g ai/ha, applied to paddy water, visual rating after 13 to 14 days, scale 0 to 100 (0 no effect, 100 complete control)
In short: as §2

rice = assay: Test D flooded paddy test; assay type: in vivo, Oryza sativa; details: 250 g ai/ha, applied to paddy water, visual rating after 13 to 14 days, scale 0 to 100 (0 no effect, 100 complete control)
In short: as §2

barnyardgrass [19] = assay: Test C postemergence; assay type: in vivo, Echinochloa crusgalli; details: 10 days
In short: as §1

soybean [20] = assay: Test C postemergence; assay type: in vivo, Glycine max; details: 125 g ai/ha, postemergence, 10 days; 0 to 100 scale, 0 no effect, 100 complete control
In short: as §1

corn [21] = assay: Test C preemergence; assay type: in vivo, Zea mays; details: preemergence, 0 to 100 scale (0 no effect, 100 complete control)
In short: as §1

oat, wild [22] = assay: Test C preemergence; assay type: in vivo, Avena fatua; details: preemergence, 0 to 100 scale (0 no effect, 100 complete control)
In short: as §1

kochia [23] = assay: Test C postemergence; assay type: in vivo, Bassia scoparia; details: 125 g ai/ha, postemergence, 10 days; 0 to 100 scale, 0 no effect, 100 complete control
In short: as §1

[24] = 125 g ai/ha, postemergence, 0 to 100 scale, 0 no effect, 100 complete control
[25] = Postemergence, 500 g ai/ha, visual 0 to 100 scale (0 no effect, 100 complete control)

COc1ccc(-n2cnc(C(C)C)n2)cc1C(=O)N1C[C@H](C)Oc2c(F)cccc21 [Compound 269]
100: Plant response rating, Ducksalad (Flood) (ducksalad) | Ragweed plant response rating (ragweed [2]; 500 g ai/ha) | Ragweed plant response rating (ragweed [2]; Test C, 125 g ai/ha) | Pigweed, Palmer plant response rating (pigweed, palmer [3]; 500 g ai/ha) | Pigweed, Palmer plant response rating (pigweed, palmer [3]; Test C, 125 g ai/ha) | Kochia plant response rating (kochia [7]; 500 g ai/ha) | Plant response rating, Galium (galium; [25]) | Plant response rating, Corn (corn [9]; [25]) | Ryegrass, Italian plant response rating (ryegrass, Italian [10]; 500 g ai/ha) | Ryegrass, Italian plant response rating (ryegrass, Italian [10]; Test C, 125 g ai/ha) | Plant response rating, Ryegrass, Italian (ryegrass, Italian [11]) | Wheat plant response rating (wheat [12]; 500 g ai/ha) | Wheat plant response rating (wheat [12]; Test C, 125 g ai/ha) | Plant response rating, Barnyardgrass (barnyardgrass [15]) | Barnyardgrass plant response rating (barnyardgrass [15]) | Foxtail, Green plant response rating (green foxtail [18]; 500 g ai/ha) | Foxtail, Green plant response rating (green foxtail [18]; Test C, 125 g ai/ha) | Plant response rating, Barnyardgrass (barnyardgrass [19]; [25]) | Plant response rating, Soybean (soybean [20])
45: Plant response rating, Barnyardgrass (Flood) (barnyardgrass [5])
20: Plant response rating, Horseweed (horseweed; [24]) | Corn plant response rating (corn [21]; Test C, 125 g ai/ha)
10: Plant response rating, Rice (Flood) (rice)
98: Plant response rating, Sedge, Umbrella (Flood) (sedge, umbrella)
70: Plant response rating, Ragweed (ragweed [14])
60: Oat, Wild plant response rating (oat, wild [22]; Test C, 125 g ai/ha)
80: Plant response rating, Oat, Wild (oat, wild [1]) | Plant response rating, Corn (corn [9]; [24]) | Plant response rating, Blackgrass (blackgrass [13]; [24]) | Plant response rating, Wheat (wheat [17]) | Plant response rating, Barnyardgrass (barnyardgrass [19]; [24]) | Plant response rating, Kochia (kochia [23])
90: Plant response rating, Horseweed (horseweed; [25]) | Plant response rating, Blackgrass (blackgrass [4]) | Blackgrass plant response rating (blackgrass [4]) | Plant response rating, Foxtail, Green (green foxtail [6]; [24]) | Plant response rating, Foxtail, Green (green foxtail [6]; [25]) | Kochia plant response rating (kochia [7]; Test C, 125 g ai/ha) | Soybean plant response rating (soybean [8]; 500 g ai/ha) | Soybean plant response rating (soybean [8]; Test C, 125 g ai/ha) | Plant response rating, Galium (galium; [24]) | Plant response rating, Blackgrass (blackgrass [13]; [25]) | Plant response rating, Pigweed, Palmer (pigweed, palmer [16]) | Corn plant response rating (corn [21]; 500 g ai/ha) | Oat, Wild plant response rating (oat, wild [22]; 500 g ai/ha)

COc1ccc(-n2cncn2)cc1C(=O)N1C[C@H](C)Oc2c(F)cccc21 [Compound 270]
100: Plant response rating, Ducksalad (Flood) (ducksalad) | Pigweed, Palmer plant response rating (pigweed, palmer [3]; 500 g ai/ha) | Soybean plant response rating (soybean [8]; 500 g ai/ha) | Plant response rating, Galium (galium; [24]) | Plant response rating, Galium (galium; [25]) | Ryegrass, Italian plant response rating (ryegrass, Italian [10]; 500 g ai/ha) | Plant response rating, Barnyardgrass (barnyardgrass [15]) | Foxtail, Green plant response rating (green foxtail [18]; 500 g ai/ha) | Foxtail, Green plant response rating (green foxtail [18]; Test C, 125 g ai/ha) | Plant response rating, Barnyardgrass (barnyardgrass [19]; [25]) | Plant response rating, Soybean (soybean [20])
60: Plant response rating, Horseweed (horseweed; [25]) | Ragweed plant response rating (ragweed [2]; 500 g ai/ha) | Kochia plant response rating (kochia [7]; Test C, 125 g ai/ha)
40: Plant response rating, Corn (corn [9]; [24]) | Wheat plant response rating (wheat [12]; Test C, 125 g ai/ha) | Plant response rating, Pigweed, Palmer (pigweed, palmer [16]) | Corn plant response rating (corn [21]; 500 g ai/ha) | Oat, Wild plant response rating (oat, wild [22]; Test C, 125 g ai/ha)
10: Ragweed plant response rating (ragweed [2]; Test C, 125 g ai/ha) | Plant response rating, Rice (Flood) (rice)
90: Plant response rating, Oat, Wild (oat, wild [1]) | Pigweed, Palmer plant response rating (pigweed, palmer [3]; Test C, 125 g ai/ha) | Plant response rating, Blackgrass (blackgrass [4]) | Plant response rating, Foxtail, Green (green foxtail [6]; [25]) | Kochia plant response rating (kochia [7]; 500 g ai/ha) | Soybean plant response rating (soybean [8]; Test C, 125 g ai/ha) | Plant response rating, Corn (corn [9]; [25]) | Ryegrass, Italian plant response rating (ryegrass, Italian [10]; Test C, 125 g ai/ha) | Wheat plant response rating (wheat [12]; 500 g ai/ha) | Plant response rating, Blackgrass (blackgrass [13]; [25]) | Plant response rating, Barnyardgrass (barnyardgrass [19]; [24]) | Oat, Wild plant response rating (oat, wild [22]; 500 g ai/ha)
20: Plant response rating, Horseweed (horseweed; [24])
80: Blackgrass plant response rating (blackgrass [4]) | Plant response rating, Foxtail, Green (green foxtail [6]; [24]) | Plant response rating, Ryegrass, Italian (ryegrass, Italian [11]) | Plant response rating, Blackgrass (blackgrass [13]; [24]) | Plant response rating, Wheat (wheat [17])
0: Corn plant response rating (corn [21]; Test C, 125 g ai/ha)
30: Plant response rating, Ragweed (ragweed [14]) | Plant response rating, Kochia (kochia [23])
15: Plant response rating, Barnyardgrass (Flood) (barnyardgrass [5])
70: Barnyardgrass plant response rating (barnyardgrass [15])
95: Plant response rating, Sedge, Umbrella (Flood) (sedge, umbrella)
